# Experimental data as given in patent US10226452B2, “Benzoxazolone derivatives as acid ceramidase inhibitors, and their use as medicaments” (FONDAZIONE ISTITUTO ITALIANO DI TECNOLOGIA, priority 2014, dated 2019).
# What was measured:
# AC [1] = target: AC (Homo sapiens (Human), UniProt Q13510); assay: AC activity in MeWo human melanoma cells; assay type: cell-based; conditions: 25 μM, evident at 30 minutes, lasted up to 3 hours
# Method: Specifically, FIG. 1 evidences the effects of compound of Example 7 or vehicle (0.1% DMSO in DMEM) on AC activity and ceramide levels in A375 (left panel) or MeWo (right panel) human melanoma cell lines. (A-B) Intact cells were treated with compound of Example 7 (25 μM) or vehicle and AC activity was measured 30 minutes or 3 hours later in cell lysates. (B) Intact cells were exposed to compound of Example 7 (25 μM) for 2 hours or 24 hours and medium chain ceramides (C-D), long chain ceramides (E-F) and dihydroceramides (G-H) were quantified. Results are expressed as mean±s.e.m. (n=3). *p<0.05, **p<0.01, ***p<0.001 vs vehicle, two-way ANOVA followed by Dunnet.
# hAC protein preparation (10 μg) was preincubated with inhibitors (final DMSO concentration 1%) in assay buffer (100 mM sodium phosphate, 0.1% Nonidet P-40, 150 mM NaCl, 3 mM DTT, 100 mM sodium citrate, pH 4.5) for 30 min at 37° C. Reactions were started by the addition of 50 μM N-lauroyl ceramide (Nu-Chek Prep, Elysian, Minn.) and carried on for 30 min at 37° C. […] The organic phases were collected, dried under nitrogen and analyzed by UPLC/MS (Acquity, Waters). […]
# The [M−H]^− ion was monitored in the selected-ion monitoring mode (m/z values: lauric acid 199, 11-lauroleic acid 197.35). […] Inhibition of AC activity was calculated as reduction of lauric acid in the samples compared to vehicle controls. […]
# AC [2] = target: AC (Mus musculus (Mouse), UniProt Q9WV54); assay: AC activity ex vivo in mouse tissues after systemic administration; conditions: mice
# Sequence of AC (Mus musculus (Mouse), UniProt Q9WV54) (Q9WV54 19-141): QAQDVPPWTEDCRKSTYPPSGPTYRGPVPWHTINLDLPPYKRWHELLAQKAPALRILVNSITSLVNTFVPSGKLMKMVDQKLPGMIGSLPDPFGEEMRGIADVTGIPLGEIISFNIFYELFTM
# Sequence of AC (Mus musculus (Mouse), UniProt Q9WV54) (Q9WV54 142-394): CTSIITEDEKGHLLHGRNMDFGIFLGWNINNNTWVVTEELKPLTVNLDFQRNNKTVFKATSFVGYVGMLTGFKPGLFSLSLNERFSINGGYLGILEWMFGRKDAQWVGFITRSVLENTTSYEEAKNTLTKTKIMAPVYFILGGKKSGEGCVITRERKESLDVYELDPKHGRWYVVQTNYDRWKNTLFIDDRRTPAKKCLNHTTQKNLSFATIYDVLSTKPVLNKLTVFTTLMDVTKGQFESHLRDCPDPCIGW
# Method: Specifically, it is evidences the effects of compound of Example 7 or vehicle (15% polyethylene glycol, 15% Tween80, 70% saline) on AC activity in mouse lungs. AC activity measured ex vivo 30 minutes or 3 hours after intraperitoneal injection of compound of Example 7 (10 mg-kg^−1). Results are expressed as mean±s.e.m. (n=6). ***p<0.001 vs vehicle, one-way ANOVA followed by Dunnet.
# Specifically, FIG. 7 illustrates the effects of compound of Example 25 or vehicle (15% polyethylene glycol, 15% Tween80, 70% saline) on AC activity in mouse lungs (oral administration, A) or cerebral cortex (intraperitoneal administration, B) and on ceramide levels (C and D). Results are expressed as mean±s.e.m. (n=6). *p<0.05, **p<0.01, ***p<0.001 vs vehicle, one-way ANOVA followed by Dunnet.
# hAC protein preparation (10 μg) was preincubated with inhibitors (final DMSO concentration 1%) in assay buffer (100 mM sodium phosphate, 0.1% Nonidet P-40, 150 mM NaCl, 3 mM DTT, 100 mM sodium citrate, pH 4.5) for 30 min at 37° C. Reactions were started by the addition of 50 μM N-lauroyl ceramide (Nu-Chek Prep, Elysian, Minn.) and carried on for 30 min at 37° C. Reactions were stopped by addition of a mixture of chloroform/methanol (2:1, vol/vol) containing 1 nmol 11-lauroleic acid (NuChek Prep). The organic phases were collected, dried under nitrogen and analyzed by UPLC/MS (Acquity, Waters). In the negative-ion mode monitoring the reaction product (lauric acid, m/z=199) using 11-lauroleic acid as internal standard.
# MAG levels = MAG levels in mouse tissues; assay type: in vivo; conditions: mice; 10 mg-kg-1 intraperitoneal; after 3 hours
# Method: Specifically, the levels of MAGs were quantified after 3 hours after intraperitoneal injection of compound of Example 25 (10 mg-kg-1). Specifically, levels of 16:0 MAG, 18:0 MAG, 18:1 MAG, 22:4 MAG, 22:6 MAG were measured in the brain (a); levels of 16:0 MAG, 18:0 MAG, 18:1 MAG, 22:4 MAG were measured in the liver (b), in fat (c) and in the heart (d). Results are expressed as mean±s.e.m. (n=5).
# We homogenized tissue samples (20-30 mg) in methanol (1 mL) containing deuterium-labeled 2-AG (500 pmol) as internal standard (Cayman, Ann Arbor, Mich.). We extracted lipids with chloroform (2 mL) and water (1 mL). The organic phases were dried in a stream of N2, reconstituted in chloroform (2 mL) and fractionated by open-bed silica gel column chromatography as described. The eluded fraction containing 2-AG and anandamide were dried under N2, and residues were suspended in chloroform/methanol (1:3, vol:vol; 100 μL). Analyses were conducted using a liquid chromatography mass spectrometry (LC-MS) apparatus consisting of an Agilent 1100 system and 1946D mass spectrometer detector equipped with ESI interface (Agilent Technologies, Santa Clara, Calif., USA).
# Sequence of AC (Homo sapiens (Human), UniProt Q13510) (Q13510 22-142): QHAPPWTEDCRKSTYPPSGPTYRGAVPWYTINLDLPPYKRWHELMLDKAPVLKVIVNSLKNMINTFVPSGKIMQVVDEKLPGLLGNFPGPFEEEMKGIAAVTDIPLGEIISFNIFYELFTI
# Sequence of AC (Homo sapiens (Human), UniProt Q13510) (Q13510 143-395): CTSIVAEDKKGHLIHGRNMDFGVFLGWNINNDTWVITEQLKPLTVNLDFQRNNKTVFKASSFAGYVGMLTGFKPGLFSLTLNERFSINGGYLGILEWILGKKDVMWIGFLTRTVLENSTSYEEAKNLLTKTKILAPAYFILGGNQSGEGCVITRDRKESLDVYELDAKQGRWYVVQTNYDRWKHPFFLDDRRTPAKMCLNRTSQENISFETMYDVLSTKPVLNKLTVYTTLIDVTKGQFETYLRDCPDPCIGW
smiles,measurement,setting,value
"O=C(NCCCCc1ccccc1)n1c(=O)oc2cc(Br)ccc21 [Example 7, 6-Bromo-2-oxo-N-(4-phenylbutyl)-1,3-benzoxazole-3-carboxamide]",AC activity,AC [1],reduction in AC activity
same,AC activity in lungs,"AC [2]; 10 mg-kg^−1 intraperitoneal, after 30 minutes or 3 hours",time-dependent inhibition of AC activity in lungs
"O=C(NCCCCc1ccccc1)n1c(=O)oc2cc(-c3ccc(F)cc3)ccc21 [Example 25, 6-(4-Fluorophenyl)-2-oxo-N-(4-phenylbutyl)-1,3-benzoxazole-3-carboxamide]",AC activity in lungs,"AC [2]; 3 or 10 mg-kg^−1, intraperitoneal or oral (FIG. 7A oral)",time and dose-dependent inhibition of AC activity
same,AC activity in brain cortex,"AC [2]; 3 or 10 mg-kg^−1, intraperitoneal or oral (FIG. 7B intraperitoneal)",time and dose-dependent inhibition of AC activity
same,"levels of the most representative MAGs in brain, liver, fat and heart",MAG levels,remained unchanged
